Experimental data reported in patent US20140357713A1, “ANTIMICROBIAL COMPOUNDS AND METHODS OF USE” (NexMed Holdings, Inc., priority 2012, published 2014).
Read-outs that look alike come from different tables or passages of the source.

Tests used:
[1] = pH (Table 1); assay type: physicochemical
[2] = tested on: Escherichia coli (ATCC 25922); experiment: Minimum inhibitory concentration (MIC) assay, Example 33; assay type: cell-based; conditions: for MIC: Table 19 summary of Example 33 and Example 35
Protocol: (§1) Thirty compounds were tested for antimicrobial activity using standard procedures and standard strains for both the minimum inhibitory concentration (MIC) assay and a time kill study. Both the MIC assay and the time kill study were performed according to Clinical and Laboratory Standards Institute (CLSI) guidelines. Three bacteria strains, Escherichia coli (ATCC 25922), Pseudomonas aeruginosa (ATCC 27853), Staphulococcus aureus (ATCC 29213), and two fungus strains, Candida albicans (ATCC 90029) and Aspergillus niger (CMCC 98003), were used in the experiments.
(§2) Preparation of cultures. Before the experiment, two days for the bacteria strains and five days for fungus strains, an aliquot was removed from the cultures frozen at −80° C. Medium was added to the surface of an appropriate agar plate and streaked with the aliquot. The plate was incubated for 20 to 24 hrs at 35±2° C. for bacteria or for 5 days at 26-30° C. in incubator for fungus. From the resulting growth on each plate, one isolated colony of similar morphology was selected and re-streaked onto a fresh agar plate using a sterile disposable loop. The plate was incubated 20 to 24 hrs at 35±2° C. or for 5 days at 26-30° C. in an incubator.
(§3) Preparation of Assay Plates with Medium and Drugs. On the day of the assay, CAMHB medium or RPMI 1640 medium was removed from 4′C storage and allowed to reach room temperature. Ninety microliters (μL) of room temperature CAMHB or RPMI 1640 (supplemented with the appropriate concentration of DMSO, if required) were added to rows B-G of each 96-well microtiter plate. Using a pipette, duplicate 180 μL aliquots of each drug stock solution were added to column 1 (e.g. A1 and B1 or C1 and D1 or E1 and F1 or G1 and H1). Using a multichannel pipette or the Provision 2000 liquid handler, serial 2-fold dilutions (90 μL) were performed in each row across the plate to row G. Eighty μL of compounds dilutions were transferred to a 96-deep well plate. Medium, 1,520 μL of CAMHB or RPMI 1640, was added to each well. The contents of the wells were mixed thoroughly. A 50 μL aliquot of each of the resulting mixtures was transferred to a 96-well assay plate.
(§4) For bacteria, a sterile inoculating loop was used to transfer growth from an agar plate culture into about 5 mL of test medium. Using a turbidity meter, this inoculum was adjusted so that its density (600 nm) was equivalent to a 0.5 McFarland barium sulfate standard (0.08-0.13). The resulting suspension was diluted 1:100 into medium to obtain two times test inoculums.
(§5) For Aspergillus niger, sporulating colonies were covered with RPMI 1640, and a suspension was prepared by gently probing the colonies with the tip of a transfer pipette. The suspension was transferred to a sterile tube and mixed with a vortex mixer for 15 seconds. The densities at 530 nm were adjusted to 0.09-0.13 for each sample. The resulting suspension was diluted 1:50 with the medium to obtain two times test inoculums. Fifty μL/well of this inoculum suspension was added to wells of drug-containing plates (1:2 dilution). Plates were incubated at 35° C. for the appropriate times. The MIC was read and recorded according to CLSI guidelines.
(§6) The MIC values for thirty compounds against Escherichia coli, Pseudomonas aeruginosa, Staphulococcus aureus, Candida albicans, and Aspergillus niger were recorded and are presented in Table 3 and Table 4.

[3] = tested on: Pseudomonas aeruginosa (ATCC 27853); experiment: as above; assay type: cell-based; conditions: for MIC: Table 19 summary
Protocol: as §1, §2, §3, §4, §5, §6

[4] = tested on: Staphulococcus aureus (ATCC 29213); experiment: as above; assay type: cell-based, Staphylococcus aureus; conditions: for MIC: Table 19 summary
Protocol: as §1, §2, §3, §4, §5, §6

[5] = tested on: Candida albicans (ATCC 90029); experiment: as above; assay type: cell-based; conditions: for MIC: Table 19 summary
Protocol: as §1, §2, §3
For Candida albicans, a sterile inoculating loop was used to transfer growth from an agar plate culture into a tube with RPMI1640 medium. This inoculum was adjusted so that its density at 530 nm was in the ranges from 0.08 to 0.13. The resulting suspension was diluted 1:50 and further diluted 1:20 with the medium to obtain two times test inoculums.
as §5, §6

[6] = tested on: Aspergillus niger (CMCC 98003); experiment: as above; assay type: cell-based; conditions: for MIC: Table 19 summary
Protocol: as §1, §2, §3, §5, §6

[7] = tested on: Escherichia coli (ATCC 25922); experiment: Time kill study, Example 33 (0 to 5 min); assay type: cell-based; conditions: 1×MIC
Protocol: as §1
(§7) The viable counts in Log10 CFU/mL at each time point were recorded.
(§8) Time kill studies. Strain suspensions were prepared as described above for the MIC test, and strain suspensions and compound solutions were mixed in the same volume. Samples were removed at specified times including 0 min, 30 sec, 1 min and 5 mins, were diluted in the test medium and streaked on agar. Colonies were counted after 24 to 48 hrs of incubation. […]

[8] = tested on: Pseudomonas aeruginosa (ATCC 27853); experiment: Time kill study, Example 33 (0 to 5 min); assay type: cell-based; conditions: 1×MIC
Protocol: as §1, §7, §8

[9] = tested on: Staphylococcus aureus (ATCC 29213); experiment: Time kill study, Example 33 (0 to 5 min); assay type: cell-based; conditions: 1×MIC
Protocol: as §1, §7, §8

CCCCCCCCCCCCOC(=O)[C@@H](C)N(C)C.Cl [Nex-56, D-Dodecyl 2-(dimethylamino)propanoate hydrochloride]
pH [1]: 1.70
MIC [2]: 3130 µg/mL
MIC E. coli ([2]; n = 1): 3130 µg/mL
MIC E. coli ([2]; n = 2): 3130 µg/mL
MIC [3]: 6250 µg/mL
MIC P. aeruginosa ([3]; n = 1): 6250 µg/mL
MIC P. aeruginosa ([3]; n = 2): 6250 µg/mL
MIC [4]: 3130 µg/mL
MIC S. aureus ([4]; n = 1): 3130 µg/mL
MIC S. aureus ([4]; n = 2): 3130 µg/mL
MIC [5]: >12500 µg/mL
MIC Candida albicans ([5]; n = 1): >12500 µg/mL
MIC Candida albicans ([5]; n = 2): >12500 µg/mL
MIC [6]: >12500 µg/mL
MIC Aspergillus niger ([6]; n = 1): >12500 µg/mL
MIC Aspergillus niger ([6]; n = 2): >12500 µg/mL
Viable counts, Escherichia coli time kill study ([7]; 0.5 min): <4.0 Log10 CFU/mL
Viable counts, Escherichia coli time kill study ([7]; 1 min): <3.70 Log10 CFU/mL
Viable counts, Escherichia coli time kill study ([7]; 5 min): <3.52 Log10 CFU/mL
Viable counts, Escherichia coli time kill study ([7]; time 0): 5.92 Log10 CFU/mL
Viable counts, Pseudomonas aeruginosa time kill study ([8]; 0.5 min): <4.0 Log10 CFU/mL
Viable counts, Pseudomonas aeruginosa time kill study ([8]; 1 min): <3.70 Log10 CFU/mL
Viable counts, Pseudomonas aeruginosa time kill study ([8]; 5 min): <3.52 Log10 CFU/mL
Viable counts, Pseudomonas aeruginosa time kill study ([8]; time 0): 5.56 Log10 CFU/mL
Viable counts, Staphylococcus aureus time kill study ([9]; 0.5 min): 6.27 Log10 CFU/mL
Viable counts, Staphylococcus aureus time kill study ([9]; 1 min): 6.16 Log10 CFU/mL
Viable counts, Staphylococcus aureus time kill study ([9]; 5 min): 5.9 Log10 CFU/mL
Viable counts, Staphylococcus aureus time kill study ([9]; time 0): 6.33 Log10 CFU/mL

CCCCCCCCCCCCOC(=O)C(C)N(C)C.CCCCCCCCCCCCOC(=O)C(C)N(C)C.O=S(=O)(O)c1cccc2c(S(=O)(=O)O)cccc12 (stereo not shown) [Nex-32, Dodecyl 2-(dimethylamino)propanoate heminaphthalene-1,5-disulfonate]
pH [1]: 3.87
MIC [2]: 3130 µg/mL
MIC E. coli ([2]; n = 1): 3130 µg/mL
MIC E. coli ([2]; n = 2): 3130 µg/mL
MIC [3]: 6250 µg/mL
MIC P. aeruginosa ([3]; n = 1): 6250 µg/mL
MIC P. aeruginosa ([3]; n = 2): 6250 µg/mL
MIC [4]: 1560 µg/mL
MIC S. aureus ([4]; n = 1): 1560 µg/mL
MIC S. aureus ([4]; n = 2): 1560 µg/mL
MIC [5]: >12500 µg/mL
MIC Candida albicans ([5]; n = 1): >12500 µg/mL
MIC Candida albicans ([5]; n = 2): >12500 µg/mL
MIC [6]: >12500 µg/mL
MIC Aspergillus niger ([6]; n = 1): >12500 µg/mL
MIC Aspergillus niger ([6]; n = 2): >12500 µg/mL
Viable counts, Escherichia coli time kill study ([7]; 0.5 min): 5.77 Log10 CFU/mL
Viable counts, Escherichia coli time kill study ([7]; 1 min): 4.7 Log10 CFU/mL
Viable counts, Escherichia coli time kill study ([7]; 5 min): <3.52 Log10 CFU/mL
Viable counts, Escherichia coli time kill study ([7]; time 0): 6.05 Log10 CFU/mL
Viable counts, Pseudomonas aeruginosa time kill study ([8]; 0.5 min): 5.62 Log10 CFU/mL
Viable counts, Pseudomonas aeruginosa time kill study ([8]; 1 min): 4.48 Log10 CFU/mL
Viable counts, Pseudomonas aeruginosa time kill study ([8]; 5 min): 4.12 Log10 CFU/mL
Viable counts, Pseudomonas aeruginosa time kill study ([8]; time 0): 5.73 Log10 CFU/mL
Viable counts, Staphylococcus aureus time kill study ([9]; 0.5 min): 6.31 Log10 CFU/mL
Viable counts, Staphylococcus aureus time kill study ([9]; 1 min): 6.23 Log10 CFU/mL
Viable counts, Staphylococcus aureus time kill study ([9]; 5 min): 6.2 Log10 CFU/mL
Viable counts, Staphylococcus aureus time kill study ([9]; time 0): 6.25 Log10 CFU/mL

CCCCCCCCCCCCOC(=O)C(C)N(C)C (stereo not shown) [Nex-22, Dodecyl 2-(dimethylamino)propanoate methanesulfonate]
pH ([1]; methanesulfonate): 3.25
MIC ([2]; methanesulfonate): 3130 µg/mL
MIC E. coli ([2]; n = 1, methanesulfonate): 3130 µg/mL
MIC E. coli ([2]; n = 2, methanesulfonate): 3130 µg/mL
MIC ([3]; methanesulfonate): 6250 µg/mL
MIC P. aeruginosa ([3]; n = 1, methanesulfonate): 6250 µg/mL
MIC P. aeruginosa ([3]; n = 2, methanesulfonate): 6250 µg/mL
MIC ([4]; methanesulfonate): 3130 µg/mL
MIC S. aureus ([4]; n = 1, methanesulfonate): 3130 µg/mL
MIC S. aureus ([4]; n = 2, methanesulfonate): 3130 µg/mL
MIC ([5]; methanesulfonate): >12500 µg/mL
MIC Candida albicans ([5]; n = 1, methanesulfonate): >12500 µg/mL
MIC Candida albicans ([5]; n = 2, methanesulfonate): >12500 µg/mL
MIC ([6]; methanesulfonate): >12500 µg/mL
MIC Aspergillus niger ([6]; n = 1, methanesulfonate): >12500 µg/mL
Viable counts, Escherichia coli time kill study ([7]; 0.5 min, methanesulfonate): 4.6 Log10 CFU/mL
Viable counts, Escherichia coli time kill study ([7]; 1 min, methanesulfonate): <3.70 Log10 CFU/mL
Viable counts, Escherichia coli time kill study ([7]; 5 min, methanesulfonate): <3.52 Log10 CFU/mL
Viable counts, Escherichia coli time kill study ([7]; time 0, methanesulfonate): 5.78 Log10 CFU/mL
Viable counts, Pseudomonas aeruginosa time kill study ([8]; 0.5 min, methanesulfonate): <4.0 Log10 CFU/mL
Viable counts, Pseudomonas aeruginosa time kill study ([8]; 1 min, methanesulfonate): <3.70 Log10 CFU/mL
Viable counts, Pseudomonas aeruginosa time kill study ([8]; time 0, methanesulfonate): 5.64 Log10 CFU/mL
Viable counts, Staphylococcus aureus time kill study ([9]; 0.5 min, methanesulfonate): 6.2 Log10 CFU/mL
Viable counts, Staphylococcus aureus time kill study ([9]; 1 min, methanesulfonate): 6.18 Log10 CFU/mL
Viable counts, Staphylococcus aureus time kill study ([9]; 5 min, methanesulfonate): 6.21 Log10 CFU/mL
Viable counts, Staphylococcus aureus time kill study ([9]; time 0, methanesulfonate): 6.08 Log10 CFU/mL
